Results: patent US5043332A, “Novel 11β-substituted -19-nor-steriods” (priority 1981, dated 1991)

Tests used:
[1] = molecular target: T1, Progestogen receptor of the uterus of rabbits (Oryctolagus cuniculus, UniProt P06186); experiment: Progestogen receptor binding (displacement of tritiated product R); design: species or system rabbit; details: for affinity for progestogen receptors (in words): conclusion
T1 construct: The uterus was removed, weighed and homogenized at 0° C; from tissue; host or cells: rabbit uterus, 105,000 g supernatant (estradiol-primed immature rabbits)
T1 sequence (P06186 1-930): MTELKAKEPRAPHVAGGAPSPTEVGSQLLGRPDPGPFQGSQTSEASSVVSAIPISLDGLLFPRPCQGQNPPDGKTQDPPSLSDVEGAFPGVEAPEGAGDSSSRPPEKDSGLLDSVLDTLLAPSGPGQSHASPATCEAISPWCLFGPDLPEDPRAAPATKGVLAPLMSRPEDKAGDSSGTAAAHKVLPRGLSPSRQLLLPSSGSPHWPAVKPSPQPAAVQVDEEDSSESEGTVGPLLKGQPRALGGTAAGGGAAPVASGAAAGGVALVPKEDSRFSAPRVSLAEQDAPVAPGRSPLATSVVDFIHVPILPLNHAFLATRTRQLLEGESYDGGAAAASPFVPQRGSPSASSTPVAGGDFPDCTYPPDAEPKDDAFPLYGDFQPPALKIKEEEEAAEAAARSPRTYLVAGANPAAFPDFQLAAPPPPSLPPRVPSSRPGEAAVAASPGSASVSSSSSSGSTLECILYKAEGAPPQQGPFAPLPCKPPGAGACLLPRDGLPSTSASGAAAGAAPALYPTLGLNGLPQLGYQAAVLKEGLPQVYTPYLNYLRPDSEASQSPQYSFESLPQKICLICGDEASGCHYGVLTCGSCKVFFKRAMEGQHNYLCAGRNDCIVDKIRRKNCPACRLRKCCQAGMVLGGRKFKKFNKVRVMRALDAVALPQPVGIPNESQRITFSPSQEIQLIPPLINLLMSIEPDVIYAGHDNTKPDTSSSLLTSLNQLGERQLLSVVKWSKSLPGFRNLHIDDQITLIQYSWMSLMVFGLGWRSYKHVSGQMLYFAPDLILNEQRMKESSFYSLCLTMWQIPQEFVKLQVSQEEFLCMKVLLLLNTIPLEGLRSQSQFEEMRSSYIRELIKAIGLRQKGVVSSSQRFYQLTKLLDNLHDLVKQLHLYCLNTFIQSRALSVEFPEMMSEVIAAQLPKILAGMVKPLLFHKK
Description: C. Progestogen receptor of the uterus of rabbits
Immature rabbits weighing about 1 kg received a cutaneous application of 25 μg of estradiol and the animals were killed 5 days later. The uterus was removed, weighed and homogenized at 0° C. with a polytetrafluoroethylene-glass Potter, in a buffered TS solution [Tris 10. mM, 0.25M of saccharose, HCl-pH of 7.4] with 1 g of tissue per 50 ml of TS. […] The concentration of tied tritiated R (B) was then measured for each incubate by the technique of adsoprtion on carbon-dextran.
(§1) The calculation of the relative affinity of […] (ARL) was identical for all of the above receptor tests. One traced the following two curves: the percentage of tied tritiated hormone B/T as a function of the logarithm of the cold hormone concentration and B/T as a function of the logarithm of the concentration of the cold test product. One determined the line of the equation. [formula]
(§2) The intersection of the I50 line and the curves permits one to determine the concentrations of the cold hormone of the reference (CH) and the cold test compound (CX) which inhibit by 50% the tieing of tritiated hormone with the receptor. The relative affinity of tieing (ARL) of the test product was determined by the equation: [formula]

[2] = molecular target: T2, Estrogen receptor of uterus of mice (Mus musculus, UniProt P19785); experiment: Estrogen receptor binding (displacement of tritiated estradiol)
T2 construct: the uterus were removed and homogenized at 0° C; from tissue; host or cells: mouse uterus, 105,000 g supernatant (immature females 18 to 21 days old)
T2 sequence (P19785 1-599): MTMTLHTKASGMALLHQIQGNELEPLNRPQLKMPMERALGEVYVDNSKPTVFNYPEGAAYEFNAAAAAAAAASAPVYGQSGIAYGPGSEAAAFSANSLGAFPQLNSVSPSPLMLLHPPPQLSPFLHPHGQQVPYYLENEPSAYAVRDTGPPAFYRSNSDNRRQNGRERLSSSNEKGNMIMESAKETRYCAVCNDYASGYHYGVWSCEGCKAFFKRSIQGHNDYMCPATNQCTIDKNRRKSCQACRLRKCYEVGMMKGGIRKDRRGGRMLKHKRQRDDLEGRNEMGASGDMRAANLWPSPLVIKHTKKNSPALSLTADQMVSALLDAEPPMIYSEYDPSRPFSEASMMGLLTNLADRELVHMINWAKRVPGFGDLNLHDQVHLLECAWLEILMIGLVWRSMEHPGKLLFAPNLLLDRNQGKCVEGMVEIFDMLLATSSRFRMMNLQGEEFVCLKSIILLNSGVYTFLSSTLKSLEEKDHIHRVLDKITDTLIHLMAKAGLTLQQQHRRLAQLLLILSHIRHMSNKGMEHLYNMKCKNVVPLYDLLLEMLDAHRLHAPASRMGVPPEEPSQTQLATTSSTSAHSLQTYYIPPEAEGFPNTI
Description: E. Estrogen receptor of uterus of mice
Immature female mice 18 to 21 days old were killed and the uterus were removed and homogenized at 0° C. with a polytetrafluoroethylene-glass Potter in a buffered TS solution consisting of 10 mM, Tris, 0125M Saccharose, HCl for a pH of 7.4 at a rate of 1 g of tissue per 25 ml of TS. The homogenate was then ultracentrigued at 105,000 g for 90 minutes at 0° C. and aliquoits of the resulting […] were incubated at 0° C. for a time (t) with a constant concentration (T) of tritiated estradiol in the presence of increasing concentrations (0 to 1000×10^-9 M) of either cold estradiol or cold test compound. The concentration of tied tritiated estradiol (B) was measured for each incubate by the technique of adsorption on carbon-dextran.
as §1, §2

[3] = second table, incubation 2 H at 0° C.
[4] = second table, incubation 24 H at 0° C.

relative affinity of tieing (ARL), Progestogen [1, 3] | relative affinity of tieing (ARL), Progestogen [1, 4] | relative affinity of tieing (ARL), Estrogen [2, 3] | Structure (SMILES) | affinity for progestogen receptors (in words) [1] | relative affinity of tieing (ARL), Progestogen ([1]; incubation 2 H at 0° C.) | relative affinity of tieing (ARL), Progestogen ([1]; incubation 24 H at 0° C.) | relative affinity of tieing (ARL), Estrogen ([2]; incubation 2 H at 0° C.) | relative affinity of tieing (ARL), Estrogen ([2]; incubation 5 H (25° C.))
1,1 | 2,5 | 0 | CC#C[C@]1(O)CC[C@H]2[C@@H]3CCC4=CC(=O)CCC4=C3[C@@H](c3ccc([N+](C)(C)[O-])cc3)C[C@@]21C [Example 35, N-oxide of 11β-[4-(N,N-dimethylamino)-phenyl]-17α-(prop-1-ynyl)-Δ^4,9-estradiene-17β-ol-3-one] |  |  |  |  | 
81 | 351 | 0 | C#C[C@]1(O)CC[C@H]2[C@@H]3CCC4=CC(=O)CCC4=C3[C@@H](c3ccc(N(C)C)cc3)C[C@@]21C [Example 32, 11β-[4-(N,N-dimethylamino)-phenyl]-17α-ethynyl-Δ^4,9-estradiene-17β-ol-3-one] | very remarkable affinity |  |  |  | 
 |  |  | CC#C[C@]1(OC(C)=O)CC[C@H]2[C@@H]3CCc4cc(O)ccc4[C@H]3[C@@H](c3ccc(N(C)C)cc3)C[C@@]21C [2 (17 OAc), 11β-(4-dimethylaminophenyl)-17α-(prop-1-ynyl)-17β-acetoxy-Δ^1,3,5(10) -estratriene-3-ol] |  | 5 | 52 | < 0,1 | 0,1
 |  |  | CC#C[C@]1(O)CC[C@H]2[C@@H]3CCC4=CC(=O)[C@@H](C)CC4=C3[C@@H](c3ccc(N(C)C)cc3)C[C@@]21C [5 (2β), 2-methyl-11β-(4-dimethylaminophenyl)-17α-(prop-1-ynyl)-Δ^4,9-estradiene-17β-ol-3-one] |  | 44 | 44 | < 0,1 | < 0,1
10 | 4,3 | 0 | C#C[C@@]1(O)CC[C@H]2[C@@H]3CCC4=CC(=O)CCC4=C3[C@@H](c3ccc(N(C)C)cc3)C[C@@]21C [Example 21, 11β-[4-(N,N-dimethylamino)-phenyl]-17β-ethynyl-Δ^4,9-estradiene-17α-ol-3-one] |  |  |  |  | 
 |  |  | CC#C[C@]1(O)CC[C@H]2[C@@H]3CCC4=CC(=O)[C@H](C)CC4=C3[C@@H](c3ccc(N(C)C)cc3)C[C@@]21C [5 (2α), 2α-methyl-11β-(4-dimethylaminophenyl)-17α-(prop-1-ynyl)-Δ^4,9-estradiene-17β-ol-3-one] |  | 40 | 39 | < 0,1 | < 0,1
 |  |  | CC#C[C@]1(O)CC[C@H]2[C@@H]3CCC4=C(CCC(=O)C4)[C@H]3[C@@H](c3ccc(N(C)C)cc3)C[C@@]21C [Example 10, 11β-(4-dimethylaminophenyl)-17α-(prop-1-ynyl)-Δ^5(10) -estrene-17β-ol-3-one] |  | 27 | 62 | < 0,1 | < 0,1

Structure (SMILES) | relative affinity of tieing (ARL), Progestogen [1, 3] | relative affinity of tieing (ARL), Progestogen [1, 4] | relative affinity of tieing (ARL), Estrogen [2, 3] | affinity for progestogen receptors (in words) [1] | relative affinity of tieing (ARL), Progestogen ([1]; incubation 2 H at 0° C.) | relative affinity of tieing (ARL), Progestogen ([1]; incubation 24 H at 0° C.) | relative affinity of tieing (ARL), Estrogen ([2]; incubation 2 H at 0° C.) | relative affinity of tieing (ARL), Estrogen ([2]; incubation 5 H (25° C.))
C[C@]12C[C@H](c3ccc([N+](C)(C)[O-])cc3)[C@]34O[C@]35CCC(=O)C=C5CC[C@H]4[C@@H]1CC[C@@]2(O)C#CCl [Example 27, N-oxide of 11β-[4-(N,N-dimethylamino)-phenyl]-9α,10α-epoxy-21-chloro-19-nor-17α-Δ^4-pregnene-20-yne-17β-ol-3-one] | 0,6 | 0,4 | 0 |  |  |  |  | 
C=CC[C@]1(O)CC[C@H]2[C@@H]3CCC4=CC(=O)CCC4=C3[C@@H](c3ccc(N(C)C)cc3)C[C@@]21C [Example 37, 11β-[4-(N,N-dimethylamino)-phenyl]-17α-(prop-2-enyl)-Δ^4,9-estradien-17β-ol-3-one] | 175 | 843 | 0 | very remarkable affinity |  |  |  | 
